Laboratory results reported in patent publication US11918565B1, “Treatment of post-operative pain via sciatic nerve block with sustained-release liposomal anesthetic compositions” (Pacira Pharmaceuticals, Inc., priority 2022, dated 2024).
Counter-ions that a name gives are not always drawn.

Test system: subjects undergoing bunionectomy (postsurgical pain, operative foot)
Assay: NRS pain intensity scores after sciatic (popliteal fossa) nerve block, Phase 3 clinical trial #1
Type: in vivo, human
Protocol: Clinical Study #1 was a Phase 3, multicenter, randomized, double-blind, active-controlled study in 180 subjects undergoing bunionectomy. Subjects received a sciatic (in the popliteal fossa) nerve block with a single dose of either […] 266 mg ([…] 133 mg (EXP133), or 0.25% bupivacaine HCl (50 mg; BUP50). The study was conducted in two parts (Part A and Part B). Part A was to be completed and analyzed before enrollment in Part B was initiated. Part A was a 3-arm cohort with 66 subjects undergoing bunionectomy to obtain information on pharmacokinetics (PK), pharmacodynamics (PD), efficacy, and safety. Subjects were randomized (1:1:1) to the EXP266, EXP133, and BUP50 treatment arms. Part B was a 2-arm cohort with 119 subjects undergoing bunionectomy to evaluate the efficacy and safety of […] compared with bupivacaine HCl. The dose of the […] arm in Part B was determined based on the interim analysis of the Part A cohort results. […] An unscheduled pain intensity assessment using the NRS (measured as “On a scale from 0 to 10, where 0 equals no pain and 10 equals the worst possible pain, how much pain are you experiencing in your operative foot right now?”) was to be completed immediately prior to administration of any breakthrough pain medication up to 96 h post-surgery. Medications were administered PRN; opioids were not to be given on a pre-determined schedule. […] All postsurgical analgesics administered, were to be recorded through hospital discharge. […]

[1] = EXP266 Part A, EXP133 and BUP50 Part A+B

In the case of `CCCCN1CCCCC1C(=O)Nc1c(C)cccc1C` (stereo not drawn) [BUP50, bupivacaine HCl], the “mean AUC of average pain over the last 24 h post-surgery from POD1 through POD4” value [1] is reported as 16.1, the “mean AUC of worst pain over the last 24 h post-surgery from POD1 through POD4” value [1] is reported as 25.2 and the “time post-surgery at which mean current pain intensity peaked” value (post-surgery) is reported as 36 h.
